Source: patent US12350294B2, “Medium comprising serum replacement, IGF1, STAT3 activator and adrenal gland hormone without BFGF or rock inhibitor for producing corneal endothelial substitute cells from iPS cells and a method thereof” (KEIO UNIVERSITY, priority 2018, dated 2025)

How the values were obtained:
Type in all cases: cell-based, human
[1] = test system: iPS cells (FF-I01s04 line); experiment: Differentiation induction inhibitory activity of bFGF (quantitative PCR and immunostaining)
Experimental: In the same manner as in Example 1 except that a medium containing bFGF (2 ng/mL) was used, the expression of each gene was quantified. As is clear from the results, when bFGF was added, an increase in ATPA1 or NR3C2 expression was not observed, and therefore an increase in ATP1A1 expression, which is important as the function of corneal endothelial cells, was not observed, either.
The expression of ATP1A1 and ZO-1 in the cells cultured in a medium containing bFGF was examined in the same manner as in Example 2.

[2] = test system: iPS cells (FF-I01s04); experiment: Effect of TGF-beta 1 added to the induction medium, immunostaining after passage; details: TGF-beta 1 1 ng/mL added to induction medium
Experimental: Using a medium (hereinafter referred to as CECSi cell induction (+T) medium) obtained by adding TGF-beta 1 (R&D System Inc., #240-GMP (1 ng/mL)) to the differentiation induction medium prepared in Example 1, the effect thereof was investigated.
Induction of iPS cells (FF-I01s04) was started using CECSi cell induction medium or CECSi cell induction (+T) medium, and the first passage was performed on day 11 and the second passage was performed on […] from the start of induction. At the time of passage, the cells were collected using Accutase (Nacalai Tesque #12679-54), and suspended and seeded at a density of 1.5×10^5 cells/cm^2 in a 35 mm dish or 100 mm dish coated with iMatrix 511 at a concentration of 3 μg/ml, without changing the previous medium.
At day 15 (after the first passage) and day 17 (after the second passage) from the start of induction, the expression state of N-cadherin and PITX2 was examined by immunostaining in the same manner as in Example 2.

[3] = test system: iPS cells (FF-I01s04 line); experiment: Differentiation induction inhibitory activity of ROCK inhibitor (immunostaining); details: medium containing fasudil 50 μM
Experimental: In the same manner as in Example 2 except that a medium containing fasudil (50 μM), which is a ROCK inhibitor, was used, the expression of ATP1A1 and ZO-1 was examined.

[4] = immunostaining, medium containing bFGF
[5] = quantitative PCR, medium containing bFGF 2 ng/mL, day 12

bFGF: basic fibroblast growth factor
expression of ATP1A1 [1, 4]: remarkably low
expression of ZO-1 and cell shape [1, 4]: Elongated cells poorly expressing ZO-1 appeared
increase in ATP1A1 expression [1, 5]: not observed
increase in ATPA1 or NR3C2 expression [1, 5]: not observed

TGF-beta 1: isoform of transforming growth factor beta, protein added to the medium
endothelial morphology after passage ([2]; day 15 and day 17): could be maintained
expression of N-cadherin after passage ([2]; day 15 and day 17, after first and second passage): maintained

O=S(=O)(c1cccc2cnccc12)N1CCCNCC1 [fasudil]
expression of ATP1A1 in the cellular membrane [3]: low
expression of ZO-1 and cell shape [3]: Elongated cells poorly expressing ZO-1 appeared
